Usually inhibition stands for the relative decrease from the control value, in per cent.

The record followed here is ChEMBL document CHEMBL5463729, “Data for DCP probe BAY 1753011” (2023).

Test [1] concerns the target Cyclin-dependent kinase 5/CDK5 activator 1 (Homo sapiens) (UniProt Q00535+Q15078). In words: Inhibition of CDK5/p25(h) at 10.0 µM in the Eurofins Kinase panel. The settings on record: Compound concentration 10.0 uM. The test is classed as protein-complex assay.
The species entered for test [2] is Rattus norvegicus. As to conditions: Compound concentration 10.0 uM.
Test [3] deals with MAP kinase-interacting serine/threonine-protein kinase 1 (Homo sapiens) (UniProt Q9BUB5). Description: Inhibition of Mnk1(h) at 10.0 µM in the Eurofins Kinase panel. The settings on record: Compound concentration 10.0 uM.
MAP kinase-interacting serine/threonine-protein kinase 1 (Homo sapiens), sequence (Q9BUB5 whole entry, looked up): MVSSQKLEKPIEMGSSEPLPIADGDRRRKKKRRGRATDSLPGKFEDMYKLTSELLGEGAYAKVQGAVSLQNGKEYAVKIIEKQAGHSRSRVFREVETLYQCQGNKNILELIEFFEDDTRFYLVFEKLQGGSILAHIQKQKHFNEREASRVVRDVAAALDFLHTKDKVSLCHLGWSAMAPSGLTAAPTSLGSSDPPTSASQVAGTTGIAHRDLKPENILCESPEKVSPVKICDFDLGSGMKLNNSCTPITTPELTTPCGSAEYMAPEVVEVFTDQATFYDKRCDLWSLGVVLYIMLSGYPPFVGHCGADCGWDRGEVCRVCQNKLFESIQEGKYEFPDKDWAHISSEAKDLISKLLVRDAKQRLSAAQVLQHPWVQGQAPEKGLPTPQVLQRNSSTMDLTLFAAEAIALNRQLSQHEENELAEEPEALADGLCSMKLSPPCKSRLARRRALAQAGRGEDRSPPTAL
Test [4] addresses Tyrosine-protein kinase Fes/Fps (Homo sapiens) (UniProt P07332). Description: Inhibition of Fes(h) at 10.0 µM in the Eurofins Kinase panel. As to conditions: Compound concentration 10.0 uM.
Test [5] has as its target Hepatocyte growth factor receptor (Homo sapiens) (UniProt P08581). In words: Inhibition of Met(h) at 10.0 µM in the Eurofins Kinase panel. The settings on record: Compound concentration 10.0 uM.
Test [6] deals with T1, GABA-A receptor; anion channel (Rattus norvegicus) (UniProt O09028+P15431+P18506+P18508+P19969+P20236+P23574+P23576+P28471+P28473+P30191+P62813+P63079+P63138+Q91ZM7+Q9ES14). As to conditions: Compound concentration 10.0 uM.
Test [7] has as its target Purinergic P2Y (Rattus norvegicus) (UniProt O35811+Q9EPX4+P49651+Q63371+P41232+O35881+Q6GUG4). Description: Inhibition of Purinergic P2Y at compound concentration of 10.0 uM in the Eurofins-Panlabs radioligand binding assay (Eurofins_assay_268820). The test is classed as protein assay. The arrangement: ligand concentration 0.1 nM. The settings on record: Compound concentration 10.0 uM.

Test [8] concerns the target Tyrosine-protein kinase JAK2 (Homo sapiens) (UniProt O60674). Description: Inhibition of JAK2(h) at 10.0 µM in the Eurofins Kinase panel. The settings on record: Compound concentration 10.0 uM.
The target in test [9] is 5'-AMP-activated protein kinase catalytic subunit alpha-2 (Homo sapiens) (UniProt P54646). In words: Inhibition of AMPKalpha2(h) at 10.0 µM in the Eurofins Kinase panel. As to conditions: Compound concentration 10.0 uM.
The target of test [10] is Cyclin-dependent kinase-like 2 (Homo sapiens) (UniProt Q92772). In words: Inhibition of CDKL2(h) at 10.0 µM in the Eurofins Kinase panel. The settings on record: Compound concentration 10.0 uM.
Cyclin-dependent kinase-like 2 (Homo sapiens), sequence (Q92772 whole entry): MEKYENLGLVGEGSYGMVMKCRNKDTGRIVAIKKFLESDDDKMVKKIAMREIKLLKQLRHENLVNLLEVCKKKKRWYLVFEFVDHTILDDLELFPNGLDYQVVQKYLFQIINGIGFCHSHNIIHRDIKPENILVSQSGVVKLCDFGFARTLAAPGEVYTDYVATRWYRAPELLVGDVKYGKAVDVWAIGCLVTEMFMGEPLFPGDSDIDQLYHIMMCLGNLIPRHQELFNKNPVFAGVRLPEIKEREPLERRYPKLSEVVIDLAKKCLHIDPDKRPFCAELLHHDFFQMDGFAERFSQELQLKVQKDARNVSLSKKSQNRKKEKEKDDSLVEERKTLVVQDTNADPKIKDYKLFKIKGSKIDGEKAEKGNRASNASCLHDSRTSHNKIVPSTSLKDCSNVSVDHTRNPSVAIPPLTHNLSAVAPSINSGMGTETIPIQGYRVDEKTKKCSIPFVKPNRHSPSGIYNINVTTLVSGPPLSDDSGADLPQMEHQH
Test [11] is filed under the species Oryctolagus cuniculus. The settings on record: Compound concentration 10.0 uM.
Test [12] addresses T2, Muscarinic acetylcholine receptor M4 (Homo sapiens) (UniProt P08173).
T2 sequence (whole entry): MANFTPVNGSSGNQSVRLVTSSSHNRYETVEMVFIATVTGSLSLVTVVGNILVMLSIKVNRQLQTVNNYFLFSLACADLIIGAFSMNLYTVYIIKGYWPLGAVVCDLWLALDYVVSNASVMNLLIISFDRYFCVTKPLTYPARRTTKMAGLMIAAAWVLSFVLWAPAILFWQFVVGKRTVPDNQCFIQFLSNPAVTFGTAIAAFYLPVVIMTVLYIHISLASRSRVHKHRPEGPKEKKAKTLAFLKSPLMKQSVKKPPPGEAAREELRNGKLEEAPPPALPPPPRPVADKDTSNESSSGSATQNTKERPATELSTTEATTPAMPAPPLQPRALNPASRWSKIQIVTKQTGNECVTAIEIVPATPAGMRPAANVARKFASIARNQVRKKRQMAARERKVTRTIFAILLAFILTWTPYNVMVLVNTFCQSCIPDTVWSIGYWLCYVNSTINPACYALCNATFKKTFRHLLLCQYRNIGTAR
As to conditions: Compound concentration 10.0 uM.

In test [13] the target is 5-hydroxytryptamine receptor 2A (Homo sapiens) (UniProt P28223). The settings on record: Compound concentration 10.0 uM.
5-hydroxytryptamine receptor 2A (Homo sapiens), sequence (P28223 whole entry): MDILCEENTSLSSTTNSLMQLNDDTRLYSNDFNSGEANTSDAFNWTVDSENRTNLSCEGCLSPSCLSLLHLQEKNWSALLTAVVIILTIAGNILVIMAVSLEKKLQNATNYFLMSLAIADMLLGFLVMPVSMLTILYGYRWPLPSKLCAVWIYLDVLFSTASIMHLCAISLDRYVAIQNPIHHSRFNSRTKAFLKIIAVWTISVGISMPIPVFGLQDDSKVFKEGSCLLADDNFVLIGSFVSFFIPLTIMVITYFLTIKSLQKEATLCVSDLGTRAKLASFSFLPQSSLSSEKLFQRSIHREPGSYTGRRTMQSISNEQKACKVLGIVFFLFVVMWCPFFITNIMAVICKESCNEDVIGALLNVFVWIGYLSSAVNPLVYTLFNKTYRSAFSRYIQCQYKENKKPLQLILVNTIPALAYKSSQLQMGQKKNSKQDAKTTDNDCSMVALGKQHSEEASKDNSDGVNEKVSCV
Test [14] addresses Calcium/calmodulin-dependent protein kinase type II subunit alpha (Homo sapiens) (UniProt Q9UQM7). Description: Inhibition of CaMKIIalpha(h) at 10.0 µM in the Eurofins Kinase panel. The settings on record: Compound concentration 10.0 uM.
For test [15], the target named is Epidermal growth factor receptor (Homo sapiens) (UniProt P00533). Description: Inhibition of Epidermal Growth Factor (EGF) at 10 µM in the Eurofins-Panlabs radioligand binding assay (Eurofins_assay_225510). As to conditions: Compound concentration 10.0 uM.
Test [16] concerns the target Mitogen-activated protein kinase kinase kinase kinase 2 (Homo sapiens) (UniProt Q12851). Description: Inhibition of GCK (h) at 10.0 µM in the Eurofins Kinase panel. As to conditions: Compound concentration 10.0 uM.
The target of test [17] is T1, GABA-A receptor; anion channel (Rattus norvegicus). In words: Inhibition of GABAA, Muscimol, Central at 10 µM in the Eurofins-Panlabs radioligand binding assay (Eurofins_assay_226500). The test is classed as protein-complex assay. As to conditions: Compound concentration 10.0 uM.
The species named for test [18] is Rattus norvegicus. In words: Inhibition of Imidazoline I2, Central at 10 µM in the Eurofins-Panlabs radioligand binding assay (Eurofins_assay_241000). Details: ligand concentration 2 nM. The settings on record: Compound concentration 10.0 uM.
The target in test [19] is Cysteinyl leukotriene receptor 1 (Homo sapiens) (UniProt Q9Y271). In words: Inhibition of Leukotriene, Cysteinyl CysLT1 at 10 µM in the Eurofins-Panlabs radioligand binding assay (Eurofins_assay_250460). Details: ligand concentration 0.3 nM, non-specific ligand with concentration 0.3 µM Leukotriene D4, incubation time 30 min, incubation temperature 25 °C. As to conditions: Compound concentration 10.0 uM.

Test [20] has as its target Glycogen synthase kinase-3 beta (Homo sapiens) (UniProt P49841). In words: Inhibition of GSK3beta(h) at 10.0 µM in the Eurofins Kinase panel. As to conditions: Compound concentration 10.0 uM.
The target in test [21] is D(1A) dopamine receptor (Homo sapiens) (UniProt P21728). As to conditions: Compound concentration 10.0 uM.
D(1A) dopamine receptor (Homo sapiens), sequence (P21728 whole entry): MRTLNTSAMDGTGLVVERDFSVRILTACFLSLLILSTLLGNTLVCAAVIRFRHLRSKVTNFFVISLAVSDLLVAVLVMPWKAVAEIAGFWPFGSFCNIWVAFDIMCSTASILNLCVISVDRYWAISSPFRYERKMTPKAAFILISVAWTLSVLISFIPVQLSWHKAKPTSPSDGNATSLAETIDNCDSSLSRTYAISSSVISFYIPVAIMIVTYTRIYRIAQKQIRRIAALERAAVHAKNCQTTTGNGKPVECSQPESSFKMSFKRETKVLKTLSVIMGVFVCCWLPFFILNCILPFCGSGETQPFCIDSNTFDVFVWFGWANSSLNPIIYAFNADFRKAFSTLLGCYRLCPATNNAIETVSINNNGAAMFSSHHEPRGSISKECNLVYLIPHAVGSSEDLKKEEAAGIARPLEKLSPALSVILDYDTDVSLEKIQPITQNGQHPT
Test [22] has as its target Sodium-dependent noradrenaline transporter (Homo sapiens, UniProt P23975). Description: GPCRScan assay: inhibition of NET. Details: radioligand conc. used [nm] 1.3 – 5.0, parental cells stable HEK.
Test [23] deals with Mitogen-activated protein kinase 14 (Homo sapiens) (UniProt Q16539). In words: Inhibition of Protein Serine/Threonine Kinase, MAPK14 (p38α) at 10 µM in the Eurofins-Panlabs enzyme assay (Eurofins_assay_176610). Details: substrate with concentration. As to conditions: Compound concentration 10.0 uM.
Test [24] is filed under the species Rattus norvegicus. Description: Inhibition of Glutamate, NMDA, Phencyclidine at 10 µM in the Eurofins-Panlabs radioligand binding assay (Eurofins_assay_233000). The test is classed as protein-complex assay. The settings on record: Compound concentration 10.0 uM.
The species named for test [25] is Oryctolagus cuniculus. In words: Inhibition of Purinergic P2X at 10 µM in the Eurofins-Panlabs radioligand binding assay (Eurofins_assay_268700). The test is classed as protein assay. The settings on record: Compound concentration 10.0 uM.
The target of test [26] is Acetylcholinesterase (Homo sapiens) (UniProt P22303). The settings on record: Compound concentration 10.0 uM.
Test [27] deals with Receptor-type tyrosine-protein phosphatase C (Homo sapiens) (UniProt P08575). In words: Inhibition of Protein Tyrosine Phosphatase, PTPRC (CD45) at 10 µM in the Eurofins-Panlabs enzyme assay (Eurofins_assay_190010). As to conditions: Compound concentration 10.0 uM.
Receptor-type tyrosine-protein phosphatase C (Homo sapiens), sequence (P08575 whole entry): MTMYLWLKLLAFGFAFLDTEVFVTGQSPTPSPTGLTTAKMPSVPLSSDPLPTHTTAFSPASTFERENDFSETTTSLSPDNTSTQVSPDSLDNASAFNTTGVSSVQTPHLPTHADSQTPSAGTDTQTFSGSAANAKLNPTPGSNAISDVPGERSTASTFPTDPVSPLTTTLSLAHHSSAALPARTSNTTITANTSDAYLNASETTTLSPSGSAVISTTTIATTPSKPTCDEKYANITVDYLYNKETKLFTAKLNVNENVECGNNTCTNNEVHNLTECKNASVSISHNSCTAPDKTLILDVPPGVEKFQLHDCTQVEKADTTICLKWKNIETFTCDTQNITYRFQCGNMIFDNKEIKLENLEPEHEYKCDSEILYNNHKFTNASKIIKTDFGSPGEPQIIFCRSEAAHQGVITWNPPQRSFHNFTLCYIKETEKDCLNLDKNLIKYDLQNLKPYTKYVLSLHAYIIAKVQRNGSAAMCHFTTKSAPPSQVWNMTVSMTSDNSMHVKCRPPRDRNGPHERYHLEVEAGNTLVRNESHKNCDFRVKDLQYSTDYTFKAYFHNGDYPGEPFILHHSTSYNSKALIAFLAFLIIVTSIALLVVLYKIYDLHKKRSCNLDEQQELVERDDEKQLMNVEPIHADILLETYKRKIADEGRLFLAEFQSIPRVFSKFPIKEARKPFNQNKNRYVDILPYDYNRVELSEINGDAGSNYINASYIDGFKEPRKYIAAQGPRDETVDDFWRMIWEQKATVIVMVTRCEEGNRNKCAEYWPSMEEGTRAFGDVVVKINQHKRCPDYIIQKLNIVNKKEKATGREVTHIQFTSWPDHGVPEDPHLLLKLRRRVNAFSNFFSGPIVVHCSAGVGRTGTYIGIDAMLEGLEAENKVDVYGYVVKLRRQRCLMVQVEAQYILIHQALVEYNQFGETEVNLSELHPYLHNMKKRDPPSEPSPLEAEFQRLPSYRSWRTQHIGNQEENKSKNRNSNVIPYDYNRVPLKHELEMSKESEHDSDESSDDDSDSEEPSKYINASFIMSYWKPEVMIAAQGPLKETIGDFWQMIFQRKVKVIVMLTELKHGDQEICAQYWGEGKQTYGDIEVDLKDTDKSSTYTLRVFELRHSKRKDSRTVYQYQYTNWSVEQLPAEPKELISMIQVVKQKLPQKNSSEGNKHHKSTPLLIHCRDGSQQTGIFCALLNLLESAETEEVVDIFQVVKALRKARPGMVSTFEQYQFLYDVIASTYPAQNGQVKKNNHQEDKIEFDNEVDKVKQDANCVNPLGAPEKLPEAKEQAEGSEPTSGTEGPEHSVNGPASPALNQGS
The species entered for another test is Homo sapiens. Description: Inhibition of Nicotinic Acetylcholine at compound concentration of 10.0 uM in the Eurofins-Panlabs radioligand binding assay (Eurofins_assay_258590). As to conditions: Compound concentration 10.0 uM. The test is classed as protein-complex assay.
For test [28], the target named is Substance-K receptor (Homo sapiens) (UniProt P21452). Description: Inhibition of Tachykinin NK2 at 10 µM in the Eurofins-Panlabs radioligand binding assay (Eurofins_assay_255600). The arrangement: ligand concentration 0.5 nM. As to conditions: Compound concentration 10.0 uM.

Sodium-dependent noradrenaline transporter, sequence (P23975 whole entry): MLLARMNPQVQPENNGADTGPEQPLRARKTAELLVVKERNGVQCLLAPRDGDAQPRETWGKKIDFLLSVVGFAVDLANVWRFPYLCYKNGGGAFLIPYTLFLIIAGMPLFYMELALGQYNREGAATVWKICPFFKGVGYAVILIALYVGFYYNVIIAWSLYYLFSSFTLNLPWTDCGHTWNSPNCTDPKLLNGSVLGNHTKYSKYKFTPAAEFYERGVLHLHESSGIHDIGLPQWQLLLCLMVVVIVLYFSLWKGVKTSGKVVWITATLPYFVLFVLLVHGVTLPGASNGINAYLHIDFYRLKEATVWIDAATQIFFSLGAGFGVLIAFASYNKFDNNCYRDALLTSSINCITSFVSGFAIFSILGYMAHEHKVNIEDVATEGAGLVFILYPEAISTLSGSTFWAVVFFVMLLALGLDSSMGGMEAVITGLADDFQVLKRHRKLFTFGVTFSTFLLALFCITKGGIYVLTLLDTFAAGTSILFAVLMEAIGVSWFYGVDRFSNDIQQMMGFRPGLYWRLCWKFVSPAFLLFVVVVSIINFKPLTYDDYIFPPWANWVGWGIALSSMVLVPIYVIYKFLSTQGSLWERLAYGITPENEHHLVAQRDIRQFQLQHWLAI
Glycogen synthase kinase-3 beta (Homo sapiens), sequence (P49841 whole entry, looked up): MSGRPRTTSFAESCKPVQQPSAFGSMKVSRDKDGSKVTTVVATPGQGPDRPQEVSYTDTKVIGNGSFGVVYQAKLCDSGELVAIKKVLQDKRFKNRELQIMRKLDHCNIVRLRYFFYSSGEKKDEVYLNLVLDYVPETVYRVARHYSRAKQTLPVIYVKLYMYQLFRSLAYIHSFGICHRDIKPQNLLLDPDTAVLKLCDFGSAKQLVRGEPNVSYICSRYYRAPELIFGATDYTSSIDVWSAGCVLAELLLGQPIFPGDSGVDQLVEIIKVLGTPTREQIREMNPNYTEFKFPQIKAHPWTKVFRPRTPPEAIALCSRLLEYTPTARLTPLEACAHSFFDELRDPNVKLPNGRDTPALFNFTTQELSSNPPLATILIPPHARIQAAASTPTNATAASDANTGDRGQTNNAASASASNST
Calcium/calmodulin-dependent protein kinase type II subunit alpha (Homo sapiens), sequence (Q9UQM7 whole entry): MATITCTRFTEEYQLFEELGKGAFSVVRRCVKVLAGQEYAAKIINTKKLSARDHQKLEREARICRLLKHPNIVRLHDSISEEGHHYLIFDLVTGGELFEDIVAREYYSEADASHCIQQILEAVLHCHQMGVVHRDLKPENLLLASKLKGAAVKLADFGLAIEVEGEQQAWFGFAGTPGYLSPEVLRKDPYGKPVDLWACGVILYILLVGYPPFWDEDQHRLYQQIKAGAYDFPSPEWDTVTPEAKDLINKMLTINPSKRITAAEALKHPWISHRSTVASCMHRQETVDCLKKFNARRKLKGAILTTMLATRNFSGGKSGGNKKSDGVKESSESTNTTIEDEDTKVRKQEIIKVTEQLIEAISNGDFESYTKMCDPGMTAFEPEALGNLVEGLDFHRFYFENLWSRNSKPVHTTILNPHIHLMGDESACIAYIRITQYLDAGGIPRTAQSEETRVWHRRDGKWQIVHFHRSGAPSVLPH

Turning to `O=c1n(Cc2cncn2-c2cccc(Cl)c2)nc(-c2ccc(Cl)cc2)n1C[C@H](O)C(F)(F)F`, the inhibition in [1] is 2.09%; in the test listed under Rattus norvegicus [2], -0.38%; in test [3], -9.85%; in test [4], -7.81%; in test [5], -3.84%; in test [6], -3.13%. Also, the inhibition is 4% in test [7]; -4.95% in test [8]; -2.83% in test [9]; -7.41% in test [10]; -5% in the test listed under Oryctolagus cuniculus [11]; -9.78% in test [12]. For the same compound, the inhibition in test [13] is -2%.

For the compound `C[C@H](O)c1nc(Cn2nc(-c3ccc(Cl)cc3)n(C[C@H](O)C(F)(F)F)c2=O)nn1-c1cccc(Cl)c1` [PECAVAPTAN], the inhibition was -6.92% in [14]; 14% in test [15]; -4.72% in test [16]; -2% in test [17]; 21% in the test listed under Rattus norvegicus [18]; 5% in test [19]. Besides, the inhibition is -4.15% in test [20]; -6.55% in [21]; -1% in [23]; 14% in the test filed under Rattus norvegicus [24]; 18% in the test filed under Oryctolagus cuniculus [25]; 2% in [26]. Besides, the inhibition is 0% in test [27], -6% in the test listed under Homo sapiens and 30% in test [28]. Moreover, the Ki in [22] (read-out: Ki) and in [22] (read-out: pKi (converted)) was 1.32 µM each time.
